Data as given in EPA's ToxValDB 9.5 (doi:10.2903/j.efsa.2016.4432).

Legend:
Folsomia candida = settings: chronic/long-term; mortality
Tagia sp. = settings: chronic/long-term; growth
Oryctolagus sp. = settings: developmental; development
Mus musculus = settings: acute; mortality
Anas platyrhynchos = settings: short-term; oral; feed; mortality
Daphnia magna = settings: chronic/long-term; duration: 21 days; mortality
Rattus norvegicus = settings: acute; oral; mortality
Apis mellifera = settings: acute, mortality
Typhlodromus pyri = test: LR50; higher = less toxic; settings: not reported; mortality

COCc1cnc(C2=NC(C)(C(C)C)C(=O)N2)c(C(=O)O)c1 (centres undefined) [Imazamox]
NOEC (Folsomia candida): 3.36 mg/kg | NOEC (Tagia sp.): 5.85 mg/kg | NOAEL (Oryctolagus sp.): 300 mg/kg-day | LD50 (Mus musculus): > 5000 mg/kg-day | LD50 (Anas platyrhynchos): > 1930 mg/kg-day | NOEC (Daphnia magna): 137 mg/L | LC50 (Cyprinodon variegatus; acute, duration: 96 hours, mortality): > 97 µg/mL | NOEC (Cyprinodon variegatus; chronic/long-term, duration: 35 days, other): 1.22 mg/L | LD50 (Rattus norvegicus): > 5000 mg/kg-day | LD50 (Apis mellifera; dermal): > 58 µg/piece | LD50 (Apis mellifera; oral, unspecified): > 40 µg/piece | LD50 (Colinus virginianus; acute, oral, mortality): 3490 mg/kg-day | NOAEL (Colinus virginianus; reproduction developmental): 209 mg/kg-day | LR50 (Typhlodromus pyri): 1340 mL/ha
